One molecule from patent US20250154607A1, “ISOTHERMAL AMPLIFICATION OF PATHOGENS” (priority 2021, published 2025) can be followed below.

The subject of assay [1] is Chlamydia trachomatis elementary bodies. Put plainly: Lysis of Chlamydia trachomatis elementary bodies, read out by APA. The settings on record: lysis buffer 0.4% SDS, pH 2.2, 2 minutes at 78° C.; compared with heat lysis 5 minutes at 95° C. As to the method:
Elementary body lysis (˜40/reaction) was probed in this example using an APA-based assay. Elementary bodies (Acrometrix) were added to either cold chlamydia transport media (SPD containing sucrose, phosphate buffer, and glutamic acid), TE (Tris-EDTA 10-1), or lysis buffer containing 0.4% SDS, pH 2.2. The samples in TE or SDS were heated 5 minutes at 95° C. (heat lysis) or 2 minutes at 78° C. (SDS lysis), respectively. Then 5 μl (containing 40 elementary bodies) was added to “wet” APA reaction mix as above (pH 7.6 to facilitate isothermal CAdNTP activation) containing 4% cyclodextrin HP-βCD for isothermal APA (68° C.) with fluorescence from a chlamydia-specific molecular beacon collected every 15 seconds.

A further assay concerns nasal swab ribonucleases. The assay is described as follows: Protection of RNA from nasal swab ribonucleases (influenza B RNA APA). The class given is biochemical, human.
The target in assay [2] is T1, RNase A (Bos taurus, UniProt P61823).
T1 sequence (P61823 27-150): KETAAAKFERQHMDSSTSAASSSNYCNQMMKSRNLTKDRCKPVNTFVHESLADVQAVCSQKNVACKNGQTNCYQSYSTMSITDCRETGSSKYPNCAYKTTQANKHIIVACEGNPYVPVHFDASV
The assay is described as follows: Requirements for irreversible RNase inactivation (influenza B RNA APA in presence of RNase A). Format: biochemical. The following applies: 500 ng RNase A (10 μg/ml); additions 0.2% SDS, 10 mM DTT, 0.1% Triton X-100 as labelled; 2 minutes at 58° C.; then 4% βCD.

The target in assay [3] is T2, 9° Nm™ DNA polymerase (Thermococcus sp., UniProt Q56366, E143D). Put plainly: Order-of-addition assay (APA of S. enterica DNA, SDS and hydroxypropyl β-CD). Format: biochemical. As to the method:
Order-of-addition assay: Detection time dependent on cyclodextrin addition prior to brief interaction of enzymes with SDS. Since SDS rapidly and irreversibly inactivated 9° Nm™ DNA polymerase, when the enzyme is instead simultaneously exposed to SDS and β-CD, the kinetics of complexation of the latter two substances must be very rapid, compared with the rate of interaction between SDS and the enzyme.
FIG. 6 depicts data related to detection of S. enterica DNA target (50,000 copies) by APA reactions in a wet “hot-start” format mediated by CleanAmp™ deoxynucleotides (CAdNTP) containing Tris pH7.6, KCl, (NH4)2SO4, MgSO4, Triton X-100, SYBRI, CAdNTP, 9° Nm™ DNA polymerase, with additions of 0.4% SDS (X), 4% hydroxypropyl β-CD (squares), SDS then immediately β-CD (circles), or β-CD then SDS (solid line) with mixing. Control (ctrl dotted line) was no additions. All samples included DNA target. Isothermal APA was at 68° C., collecting intercalating dye fluorescence every 15 seconds to monitor all exponential DNA amplification. […] Negative controls for each condition without S. enterica DNA confirmed specificity of indicated amplification products (not shown).

The target of assay [4] is T1, RNase A. The assay is described as follows: RNase Alert assay of RNase A activity recovery after SDS/DTT pretreatment. The class given is biochemical. The settings on record: 2 ng RNase A, 2 minutes at 58° C.; 10 mM DTT and/or 0.2% SDS; then 4% βCD. As to the method: 2 ng RNase A was incubated 2 minutes at 58° C. in […] solutions containing either 10 mM DTT+0.2% SDS (+), 0.2% SDS (triangle), 10 mM DTT (square), or neither (solid line) and then the RNase Alert assay was used to study the recovery of any RNase activity upon sequestration of SDS after dissolving lyophilized APA reagents without enzymes but containing RNase Alert substrate and protective agent (4% βCD) with continued incubation and fluorescence data collection at 58° C. In the presence of RNase activity, the RNase alert indicator substrate releases detectable fluorescence. […] FIG. 11A depicts recovery of RNase A activity after identical pretreatment without addition of βCD, in this case monitoring activity in […] of the solution by transfer to an RNase alert “wet” reaction format. […] Thus, as shown here, simultaneous treatment with ionic detergent and reducing agent is required for successful irreversible inactivation under the conditions described herein. […] Without being bound by any particular theory, this may be related to the impact of cyclodextrin and other APA additives on the refolding process. This example also provides further confirmation that the prior art and currently available methods (e.g, employing a reducing agent but no denaturant) are inadequate under these conditions, with an independent, commercially available RNase assay.

Assay [5] addresses T2, 9° Nm™ DNA polymerase. Put plainly: APA amplification of Neisseria gonorrhea DNA with SDS, with or without HPβCD. The following applies: no protective agent (absence of βCD); 500 copies N. gonorrhea genomic DNA; APA at 68° C. Format: biochemical. As to the method:
This example provides SDS complexation analyses of the methods and compositions provided herein. […] Anionic detergent SDS at >0.01% is inhibitory to APA amplification of DNA, but the presence of the protective agent hydroxypropyl β-CD (βCD) allowed amplification to proceed despite≤0.2% SDS. The kinetics of hydroxypropyl β-CD sequestration of SDS were thus sufficiently rapid at a molar ratio of 2:1 (˜14 mM: −7 mM) to prevent 9° Nm™ DNA polymerase inactivation by SDS.
Standard APA reactions with or without 4% Sigma 389145 HPβCD containing “hot-start” CleanAmp™ deoxynucleotides (CAdNTP) and a sequence-specific molecular beacon detection probe were performed with lyophilized ((supplemented with dextran 40, Trehalose), FIG. 2B) or “wet” (no HPβCD, FIG. 2A) reagents including Tris pH 8.4, KCl, MgSO4, and (NH4)2SO4 Triton X-100, 9° Nm™ DNA polymerase, CAdNTP, primers and probe. For the lyophilized reactions, samples were prepared in 50 μl solution containing MgSO4, and (NH4)2SO4 with (shapes) or without (dashed) 500 copies of N. gonorrhea genomic DNA. After dried reagents were dissolved with the samples, various amounts of SDS were added, as indicated, and solutions were vortexed. For the wet reactions, 45 μl master mix containing all reaction components was added to 5 μl sample containing 1OX SDS (final concentration as indicated), with and without 500 copies of N. gonorrhea genomic DNA. Activation of CAdNTP by 2 minutes 90° C. was followed by APA at 68° C. for 10 minutes with detection of the NG amplification product by fluorescence collected every 15 seconds.

T2 sequence (Q56366 whole entry E143D): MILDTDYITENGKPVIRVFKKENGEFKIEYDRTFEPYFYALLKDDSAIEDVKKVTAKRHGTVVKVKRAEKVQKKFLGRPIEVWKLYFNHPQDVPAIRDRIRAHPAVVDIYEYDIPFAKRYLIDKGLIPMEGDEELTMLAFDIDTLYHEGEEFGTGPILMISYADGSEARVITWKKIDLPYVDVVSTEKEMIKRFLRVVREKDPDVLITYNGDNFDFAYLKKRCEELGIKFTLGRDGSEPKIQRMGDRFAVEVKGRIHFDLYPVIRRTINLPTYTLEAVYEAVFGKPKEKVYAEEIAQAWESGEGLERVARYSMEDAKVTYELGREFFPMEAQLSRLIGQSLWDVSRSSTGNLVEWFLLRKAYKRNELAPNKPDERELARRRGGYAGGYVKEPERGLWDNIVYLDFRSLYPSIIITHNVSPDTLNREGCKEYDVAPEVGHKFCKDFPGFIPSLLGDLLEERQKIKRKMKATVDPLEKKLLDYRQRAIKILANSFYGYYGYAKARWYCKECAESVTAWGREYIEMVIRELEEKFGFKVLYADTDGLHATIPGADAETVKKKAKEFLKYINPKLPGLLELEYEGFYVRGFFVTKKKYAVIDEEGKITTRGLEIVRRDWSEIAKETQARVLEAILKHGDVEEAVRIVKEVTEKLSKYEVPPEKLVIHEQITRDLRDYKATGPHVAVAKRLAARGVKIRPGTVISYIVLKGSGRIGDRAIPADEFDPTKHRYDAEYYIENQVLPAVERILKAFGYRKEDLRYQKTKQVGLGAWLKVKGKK

For the molecule `CCCCCCCCCCCCOS(=O)(=O)[O-].[Na+]` [SDS, sodium dodecyl sulfate], the “Liberation of target DNA from elementary bodies (lysis)” value in assay [1] is on record as “as effective in liberating target DNA as the heat lysis”. Further, the “RNA detectability eliminated by recovered RNase activity (assay calibration)” value in the assay with nasal swab ribonucleases (0.2% SDS without DTT, 2-minute incubation at 58° C.) is given as greater than 95%. Further, in the assay on nasal swab ribonucleases (nasal swab eluate 4% of swab, 0.2% SDS with or without 10 mM DTT, 2 minutes at 58° C., then 4% βCD), the “Influenza B RNA detection after nasal swab eluate pretreatment and SDS sequestration” value was “no detection”. The “Influenza B RNA detection by APA after RNase A pretreatment” value at RNase A [2] is recorded as “did not prevent significant restoration of RNase A activity”. Also, the “Effect on APA amplification” value on 9° Nm™ DNA polymerase [3] (0.4% SDS alone, S. enterica DNA 50,000 copies) is listed as “Barrier to amplification”. In addition, at 9° Nm™ DNA polymerase [3] (0.4% SDS then immediately β-CD (brief exposure)), the “Effect on 9° Nm™ DNA polymerase” value was “sufficient to inactivate”. Further, the “Recovery of RNase A activity after pretreatment, with βCD” value on RNase A [4] is given as “virtually full recovery of enzyme activity”. In addition, on 9° Nm™ DNA polymerase [5], the “SDS concentration inhibitory to APA amplification of DNA” value was greater than 0.01%.
